Patent US6825340B2, “Methods and reagents for inactivating ribonucleases” (Ambion, Inc., priority 1998, dated 2004)
“Also recorded” adds a separate entry of the source.

Columns and labels:
[1] = pH 7.0; cited from earlier work
[2] = DTNB test of DTT reducing strength (absorbance at 412 nm); assay type: physicochemical
Excerpt: DTT has low redox potential (−0.33 volts at pH 7.0) and is capable of maintaining monothiols effectively in the reduced form and of reducing disulfides quantitatively (Cleland, 1964). DTT acts as a protective agent for free sulfhydryl groups. […] DTT's reducing activity can be accurately assayed using 5, 5′-dithiobis (2-nitrobenzoic acid) or DTNB (Cleland, 1964). The reduction of DTNB mediated by DTT generates a yellow color whose absorbance can be measured at 412 nm using a spectrophotometer. RNase A, RNase 1 and RNase T1 all contain disulfide bonds (Ryle and Anfinesen, 1957; Barnard, 1969) and, therefore, are susceptible to reduction.
FIG. 5. DTT is oxidized by incubating at 65° C. for 6 days. DTT was made to 100 mM in water and incubated at 65° C. for 6 days. Fresh DTT and the heated 100 mM were diluted in water to different concentrations and subjected to the DTNB test. Absorbance at 412 nm indicates the reducing strength of the DTT.
To assess the effect that the ribonuclease mixture has on the oxidation of DTT, the RNase mixture at 1 μg/ml was incubated with DTT at 0.05, 0.1, 0.15, 0.2 and 0.25 mM at 60° C. for 20 minutes. 0.1 ml of each sample was added to 0.8 ml of 0.1 M KPO4 (pH 7.7) and 0.1 ml DTNB in 0.1 KPO4 (pH 7.7). Samples which were not treated with heat were also subjected to the DTNB assay for comparison. The DTNB reaction mixtures were incubated at 21° C. for 10 minutes to allow the yellow color to develop. Absorbances were measured at 412 nm. The results were that there was no difference in the reactivity of the DTT whether it had been used to inactivate the RNase mixture or not.
DTT was made to 100 mM in water and incubated at 65° C. for 6 days. This material was diluted to 50, 100, 150, 200, 250 micromolar in water and then assayed for its reducing strength using the DTNB test described in Example 7 and compared to the same concentrations of DTT made fresh in water. The absorbance at 412 nm directly correlates with reducing strength. The greater the absorbance, the greater the reducing power.

RNase A = molecular target: T1, RNase A (Bos taurus, UniProt P61823); conditions: RNase A 10 μg/ml; 4 mM DTT; 4° C. for 20 minutes; cited from earlier work
T1 sequence (P61823 27-150): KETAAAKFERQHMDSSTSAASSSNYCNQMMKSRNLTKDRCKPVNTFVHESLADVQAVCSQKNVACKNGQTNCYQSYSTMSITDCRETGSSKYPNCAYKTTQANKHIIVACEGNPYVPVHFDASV

SP6 RNA polymerase = molecular target: T2, SP6 RNA polymerase (Enterobacteria phage SP6, UniProt P06221); experiment: In vitro transcription reaction (MAXIscript kit), UTP[α-32P] incorporation; assay type: biochemical; conditions: 20 mM reducing reagent
T2 construct: purchased Ambion, Inc
T2 sequence (P06221 1-874): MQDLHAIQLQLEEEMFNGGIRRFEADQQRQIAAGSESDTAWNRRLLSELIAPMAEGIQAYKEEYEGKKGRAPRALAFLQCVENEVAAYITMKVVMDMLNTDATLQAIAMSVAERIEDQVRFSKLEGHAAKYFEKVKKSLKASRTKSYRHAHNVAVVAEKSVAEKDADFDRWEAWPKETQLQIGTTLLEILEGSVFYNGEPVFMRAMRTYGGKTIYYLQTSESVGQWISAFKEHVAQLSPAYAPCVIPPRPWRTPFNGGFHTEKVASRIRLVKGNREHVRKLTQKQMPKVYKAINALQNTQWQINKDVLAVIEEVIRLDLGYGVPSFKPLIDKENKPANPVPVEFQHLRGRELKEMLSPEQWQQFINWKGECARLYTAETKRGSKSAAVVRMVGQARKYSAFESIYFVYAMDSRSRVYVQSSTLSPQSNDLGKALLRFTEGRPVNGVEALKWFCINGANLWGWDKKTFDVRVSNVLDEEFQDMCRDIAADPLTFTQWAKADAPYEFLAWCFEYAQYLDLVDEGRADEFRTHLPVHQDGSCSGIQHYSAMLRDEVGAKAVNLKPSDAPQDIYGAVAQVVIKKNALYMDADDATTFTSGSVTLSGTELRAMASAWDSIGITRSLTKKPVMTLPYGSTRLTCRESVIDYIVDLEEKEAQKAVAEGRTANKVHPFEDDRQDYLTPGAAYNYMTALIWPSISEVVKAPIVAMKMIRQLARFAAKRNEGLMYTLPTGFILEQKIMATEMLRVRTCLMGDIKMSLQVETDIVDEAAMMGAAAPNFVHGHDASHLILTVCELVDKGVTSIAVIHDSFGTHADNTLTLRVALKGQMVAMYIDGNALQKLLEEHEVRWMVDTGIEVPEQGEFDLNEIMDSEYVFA
Method: (§1) FIG. 3. […] Transcriptions were performed with T7, T3 and SP6 RNA polymerase in the presence and absence of 20 mM DTT. For each RNA polymerase reaction, pTRI-Xef DNA was the template and UTP[α^32P] was included to measure the efficiency of transcription. Duplicates were performed for each reaction. TCA precipitations were performed on each transcription reaction to measure the percent of the UTP[α^32P] incorporated into RNA.
(§2) The transcription reactions were based on the MAXIscript™ transcription kit (Ambion, Inc.). The following were assembled with or without 20 mM reducing reagent in a final volume of 18 μl: NTPs (0.5 mM each), 1 μg linearized DNA template, 2 μl 10 × transcription buffer, and 0.2 μl UTP [α-^32P] (800 Ci/mmol). The reaction mixtures were incubated 60° C. for 10 minutes and then 2 μl of the either SP6, T7 or T3 RNA polymerase (10 units/μl) were added to the reactions, incubated 30° C. for 60 minutes and then TCA precipitated to assess the incorporation of the radioactive label.

T7 RNA polymerase = molecular target: T3, T7 RNA polymerase (Escherichia phage T7, UniProt P00573); experiment: as above; assay type: biochemical; conditions: 20 mM reducing reagent
T3 construct: purchased Ambion, Inc
Method: as §1, §2

T3 RNA polymerase = molecular target: T4, T3 RNA polymerase (Enterobacteria phage T3, UniProt P07659); experiment: as above; assay type: biochemical; conditions: 20 mM reducing reagent
T4 construct: purchased Ambion, Inc
Method: as §1, §2

DNase I = DNase I (Bos taurus, UniProt P00639); experiment: DNase I activity after reducing/heat treatment, plasmid DNA degradation; assay type: biochemical; conditions: 20 mM reducing reagent in water; DNase I 0.4 units/μl; 60° C. for 20 minutes
Method: DNase I is commonly used to degrade contaminating DNA in RNA preparations. To test whether the inactivation method affected DNase I activity, DNase I (final concentration of 0.4 units/μl) was added to water containing 20 mM DTT, DTE or β-mercaptoethanol. The mixture was incubated at 60° C. for 20 minutes. After the heat treatment, the DNase I activity was tested by incubating the treated DNase I with plasmid DNA (0.2 μg/μl ) at 37° C. for one hour followed by electrophoresis in a 1% agarose gel.

T4 sequence (P07659 whole entry): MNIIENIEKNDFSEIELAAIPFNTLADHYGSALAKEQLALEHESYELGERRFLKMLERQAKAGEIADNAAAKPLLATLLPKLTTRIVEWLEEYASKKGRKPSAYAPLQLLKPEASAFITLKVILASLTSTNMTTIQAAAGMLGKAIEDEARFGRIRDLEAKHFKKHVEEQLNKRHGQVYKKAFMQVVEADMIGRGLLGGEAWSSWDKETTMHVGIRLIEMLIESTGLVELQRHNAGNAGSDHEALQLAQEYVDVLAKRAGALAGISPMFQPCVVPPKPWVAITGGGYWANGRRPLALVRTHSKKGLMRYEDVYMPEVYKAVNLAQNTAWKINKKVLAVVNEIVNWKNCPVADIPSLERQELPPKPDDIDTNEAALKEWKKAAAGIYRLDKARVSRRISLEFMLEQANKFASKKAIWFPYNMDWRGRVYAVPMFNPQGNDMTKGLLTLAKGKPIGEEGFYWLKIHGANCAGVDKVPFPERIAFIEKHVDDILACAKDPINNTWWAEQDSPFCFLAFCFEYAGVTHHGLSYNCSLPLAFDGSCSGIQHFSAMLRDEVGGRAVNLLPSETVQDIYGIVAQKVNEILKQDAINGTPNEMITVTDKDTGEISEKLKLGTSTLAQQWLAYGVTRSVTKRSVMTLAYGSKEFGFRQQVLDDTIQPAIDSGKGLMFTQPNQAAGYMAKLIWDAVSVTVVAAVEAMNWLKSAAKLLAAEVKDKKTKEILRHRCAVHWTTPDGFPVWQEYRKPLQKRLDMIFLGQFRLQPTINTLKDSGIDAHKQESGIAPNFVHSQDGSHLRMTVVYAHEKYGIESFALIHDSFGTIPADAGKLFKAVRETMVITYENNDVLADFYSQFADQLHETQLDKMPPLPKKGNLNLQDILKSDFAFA
DNase I, sequence (P00639 23-282): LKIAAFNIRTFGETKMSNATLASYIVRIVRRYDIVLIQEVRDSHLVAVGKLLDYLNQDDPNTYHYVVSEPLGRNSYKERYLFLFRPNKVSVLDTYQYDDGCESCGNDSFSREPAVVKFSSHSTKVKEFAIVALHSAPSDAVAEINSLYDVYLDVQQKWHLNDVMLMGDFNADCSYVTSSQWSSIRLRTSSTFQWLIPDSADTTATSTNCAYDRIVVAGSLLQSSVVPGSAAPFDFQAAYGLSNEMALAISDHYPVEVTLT

Q: For `O[C@H](CS)[C@H](O)CS` [DTT, dithiothreitol], which redox potential [1] is on record?
A: The redox potential was −0.33 volts.

Q: What about the “stability of DTT reducing strength” value ([2]; DTT 100 mM in water incubated at 65° C. for 6 days) of the same compound?
A: Its value is “completely oxidized”.

Q: What about the “reactivity of DTT after use to inactivate the RNase mixture vs non-reacted DTT” value ([2]; RNase mixture 1 μg/ml, DTT 0.05-0.25 mM, 60° C. for 20 minutes) of the same compound?
A: The value was “no difference”.

Q: What about the “loss of DTT reducing power with each heating step” value ([2]; sequential inactivations, 60° C. for 20 minutes) of the same compound?
A: Its value is “no detectable loss”.

Q: And the “RNase A activity (Boshes, 1970)” value (RNase A)?
A: Its value is “inhibited”.

Q: And the “inhibition of SP6 RNA polymerase transcription” value (SP6 RNA polymerase)?
A: Its value is “does not inhibit; also recorded: None of the three polymerases were inhibited”.

Q: And the “inhibition of T7 RNA polymerase transcription” value (T7 RNA polymerase)?
A: The value was “does not inhibit; also recorded: None of the three polymerases were inhibited”.

Q: And the “inhibition of T3 RNA polymerase transcription” value (T3 RNA polymerase)?
A: Its value is “does not inhibit; also recorded: None of the three polymerases were inhibited”.

Q: And the “DNase I activity after reducing/heat treatment” value (DNase I)?
A: The value was “not affected”.
